From ChEMBL document CHEMBL1142035

Biological target: MAP kinase-activated protein kinase 2 (Homo sapiens, UniProt P49137)
Sequence (P49137 whole entry): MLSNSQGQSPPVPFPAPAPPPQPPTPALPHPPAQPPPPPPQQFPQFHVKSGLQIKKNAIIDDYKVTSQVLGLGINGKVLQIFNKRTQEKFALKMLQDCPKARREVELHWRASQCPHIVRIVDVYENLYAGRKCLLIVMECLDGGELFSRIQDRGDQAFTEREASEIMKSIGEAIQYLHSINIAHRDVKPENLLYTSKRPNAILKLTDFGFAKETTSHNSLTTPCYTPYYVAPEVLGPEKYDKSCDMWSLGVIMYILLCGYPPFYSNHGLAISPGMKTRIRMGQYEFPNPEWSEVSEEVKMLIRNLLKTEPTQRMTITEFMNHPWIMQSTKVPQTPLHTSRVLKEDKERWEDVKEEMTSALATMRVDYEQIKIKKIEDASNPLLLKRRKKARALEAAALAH
Description: Concentration of 50% inhibition by compound towards mitogen activated protein kinase -activated protein kinase 2

IC50, > 200 µM:
COc1ccc2c(c1)Oc1cc(N)c(C#N)c(N)c1C2c1ccccc1 (stereo not given), N#Cc1c(N)cc2c(c1N)C(c1ccccc1)c1ccc(O)cc1O2 (stereo not given), CCNc1cc2c(c(NCC)c1C#N)Cc1cc(O)c(O)cc1O2, N#Cc1c(N)nc2c(c1N)Cc1ccccc1S2(=O)=O, N#Cc1c(N)nc2c(c1N)Cc1ccccc1S2
